# What was measured:
# Assay type in all cases: cell-based
# MCF7 breast cancer cells = assay: Cancer cell survival (CellTiter-Glo), MCF7; settings: 72 h
# Method in brief: (§1)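 Log-phase cells are plated at 4×10^3 per well and incubated overnight. Compounds, prepared in media as 10× solutions, are then added and the plates held 72 h at 37 C. Viability is measured by CellTiter-Glo luminescence, and IC50 is derived from survival relative to untreated controls.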
# A-431 skin cancer cells = assay: Cancer cell survival (CellTiter-Glo), A-431; set-up: Cell survival at given concentration: unit not given here; settings: A-431 cells, 72 h
# Method in brief: as §1
# T24 bladder cancer cells = assay: Cancer cell survival (CellTiter-Glo), T24; settings: 72 h
# Method in brief: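 T24 cells seeded at 4×10^3 cells/well overnight, then exposed 72 h at 37 C, 5% CO2 to nine concentrations in triplicate. Survival measured by CellTiter-Glo luminescence relative to untreated and medium controls; IC50 derived.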
# [1] = test system: Daudi lymphoma cancer cells; assay: Cancer cell survival (CellTiter-Glo), Daudi; settings: 72 h
# Method in brief: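 Daudi cells (4×10^3/well) were exposed for 72 h at 37 °C to nine concentrations of compound, added as 10× solutions spanning 1 μM–10 mM (fatty acids) or 100 nM–1 mM (others). CellTiter-Glo luminescence gave % survival versus untreated, medium-blank corrected; IC50 derived.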
# A549 lung cancer cells = assay: Cancer cell survival (CellTiter-Glo), A549; settings: 72 h
# Method in brief: as §1
# [2] = test system: HCT 116 colorectal cancer cells; assay: Cancer cell survival (CellTiter-Glo), HCT 116; settings: HCT 116 cells, 72 h
# Method in brief: as §1
# AGS stomach cancer cells = assay: Cancer cell survival (CellTiter-Glo), AGS; set-up: Cell survival at given concentration: unit not given here
# Method in brief: as §1
# [3] = test system: PC-3 prostate cancer cells; assay: Cancer cell survival (CellTiter-Glo), PC-3; settings: PC-3 cells, 72 h
# Method in brief: as §1
smiles,measurement,setting,value
O=c1oc2cc(O)ccc2c2cc(O)c(O)cc12 [urolithin C],Cell survival at given concentration,MCF7 breast cancer cells; 101 nM,0.97
same,Cell survival at given concentration,MCF7 breast cancer cells; 318 nM,0.99
same,Cell survival at given concentration,MCF7 breast cancer cells; 1 μM,0.97
same,Cell survival at given concentration,MCF7 breast cancer cells; 3 μM,1.02
same,Cell survival at given concentration,MCF7 breast cancer cells; 10 μM,1.07
same,Cell survival at given concentration,MCF7 breast cancer cells; 32 μM,0.76
same,Cell survival at given concentration,MCF7 breast cancer cells; 100 μM,0.22
same,Cell survival at given concentration,MCF7 breast cancer cells; 316 μM,0.21
same,Cell survival at given concentration,MCF7 breast cancer cells; 1000 μM,0.20
same,IC50,MCF7 breast cancer cells; Table 5.1,34.7 µM
same,Cell survival at given concentration,A-431 skin cancer cells; 101 nM,1.02
same,Cell survival at given concentration,A-431 skin cancer cells; 318 nM,1.02
same,Cell survival at given concentration,A-431 skin cancer cells; 1 μM,1.02
same,Cell survival at given concentration,A-431 skin cancer cells; 3 μM,1.03
same,Cell survival at given concentration,A-431 skin cancer cells; 10 μM,1.02
same,Cell survival at given concentration,A-431 skin cancer cells; 32 μM,0.95
same,Cell survival at given concentration,A-431 skin cancer cells; 100 μM,0.34
same,Cell survival at given concentration,A-431 skin cancer cells; 316 μM,0.20
same,Cell survival at given concentration,A-431 skin cancer cells; 1000 μM,0.06
same,IC50,A-431 skin cancer cells; Table 9.1,76.7 µM
same,Cell survival at given concentration,T24 bladder cancer cells; 101 nM,1.00
same,Cell survival at given concentration,T24 bladder cancer cells; 318 nM,0.94
same,Cell survival at given concentration,T24 bladder cancer cells; 1 μM,0.96
same,Cell survival at given concentration,T24 bladder cancer cells; 3 μM,0.96
same,Cell survival at given concentration,T24 bladder cancer cells; 10 μM,0.93
same,Cell survival at given concentration,T24 bladder cancer cells; 32 μM,0.37
same,Cell survival at given concentration,T24 bladder cancer cells; 100 μM,0.12
same,Cell survival at given concentration,T24 bladder cancer cells; 316 μM,0.08
same,Cell survival at given concentration,T24 bladder cancer cells; 1000 μM,0.07
same,IC50,"T24 bladder cancer cells; Table 3.1, read-out: 1050",26.1 µM
same,Cell survival at given concentration,[1]; 101 nM,0.99
same,Cell survival at given concentration,[1]; 318 nM,0.99
same,Cell survival at given concentration,[1]; 1 μM,1.00
same,Cell survival at given concentration,[1]; 3 μM,1.00
same,Cell survival at given concentration,[1]; 10 μM,0.89
same,Cell survival at given concentration,[1]; 32 μM,0.36
same,Cell survival at given concentration,[1]; 100 μM,0.18
same,Cell survival at given concentration,[1]; 316 μM,0.16
same,Cell survival at given concentration,[1]; 1000 μM,0.07
same,IC50,[1]; Table 4.1,24.1 µM
same,Cell survival at given concentration,A549 lung cancer cells; 101 nM,0.99
same,Cell survival at given concentration,A549 lung cancer cells; 318 nM,0.99
same,Cell survival at given concentration,A549 lung cancer cells; 1 μM,1.02
same,Cell survival at given concentration,A549 lung cancer cells; 3 μM,1.04
same,Cell survival at given concentration,A549 lung cancer cells; 10 μM,1.04
same,Cell survival at given concentration,A549 lung cancer cells; 32 μM,1.02
same,Cell survival at given concentration,A549 lung cancer cells; 100 μM,0.36
same,Cell survival at given concentration,A549 lung cancer cells; 316 μM,0.16
same,Cell survival at given concentration,A549 lung cancer cells; 1000 μM,0.12
same,IC50,A549 lung cancer cells; Table 7.1,93.5 µM
same,Cell survival at given concentration,[2]; 101 nM,1.00
same,Cell survival at given concentration,[2]; 318 nM,0.99
same,Cell survival at given concentration,[2]; 1 μM,1.00
same,Cell survival at given concentration,[2]; 3 μM,0.99
same,Cell survival at given concentration,[2]; 10 μM,0.94
same,Cell survival at given concentration,[2]; 32 μM,0.34
same,Cell survival at given concentration,[2]; 100 μM,0.02
same,Cell survival at given concentration,[2]; 316 μM,0.01
same,Cell survival at given concentration,[2]; 1000 μM,0.01
same,IC50,[2]; Table 6.1,25.5 µM
same,Cell survival at given concentration,AGS stomach cancer cells; 101 nM,0.98
same,Cell survival at given concentration,AGS stomach cancer cells; 318 nM,0.99
same,Cell survival at given concentration,"AGS stomach cancer cells; 1 μM, Table 10.1",0.98
same,Cell survival at given concentration,"AGS stomach cancer cells; 3 μM, Table 10.1",0.99
same,Cell survival at given concentration,"AGS stomach cancer cells; 10 μM, Table 10.1",1.02
same,Cell survival at given concentration,"AGS stomach cancer cells; 32 μM, Table 10.1",0.86
same,Cell survival at given concentration,"AGS stomach cancer cells; 100 μM, Table 10.1",0.15
same,Cell survival at given concentration,AGS stomach cancer cells; 316 μM,0.04
same,Cell survival at given concentration,AGS stomach cancer cells; 1000 μM,0.02
same,IC50,AGS stomach cancer cells; Table 10.1,56 µM
same,Cell survival at given concentration,[3]; 101 nM,1.03
same,Cell survival at given concentration,[3]; 318 nM,1.00
same,Cell survival at given concentration,[3]; 1 μM,1.04
same,Cell survival at given concentration,[3]; 3 μM,1.01
same,Cell survival at given concentration,[3]; 10 μM,1.07
same,Cell survival at given concentration,[3]; 32 μM,0.93
same,Cell survival at given concentration,[3]; 100 μM,0.08
same,Cell survival at given concentration,[3]; 316 μM,0.04
same,Cell survival at given concentration,[3]; 1000 μM,0.03
same,IC50,[3]; Table 8.1,52.6 µM

# — US20210085640A1, “ACYLATED CATECHIN POLYPHENOLS AND METHODS OF THEIR USE FOR THE TREATMENT OF CANCER” (Flagship Pioneering Innovations V, Inc., priority 2018, published 2021)
